For two molecules, Normal melting temperature results are on record in the NIST ThermoML archive (doi:10.1016/j.fluid.2013.01.026).

Numbers after ± are expanded uncertainties.

The conditions of this series: Crystal; Melting Point Apparatus.

Take `O=c1cc(-c2ccc(O)c(O)c2)oc2cc(O)cc(O)c12` [5,7,3',4'-tetrahydroxyflavone]: the Normal melting temperature stood at 337.38 ± 0.2 °C.
In the case of `C[C@@H]1O[C@@H](OC[C@H]2O[C@@H](Oc3c(-c4ccc(O)c(O)c4)oc4cc(O)cc(O)c4c3=O)[C@H](O)[C@@H](O)[C@@H]2O)[C@H](O)[C@H](O)[C@H]1O` [rutin], the Normal melting temperature amounted to 177.20 ± 0.2 °C.
